# Results: US9445979B2, “Hair treatment composition containing gambogic acid, ester or amide” (DSM IP ASSETS B.V., priority 2010, dated 2016)
# Key:
# Assay type in all cases: cell-based
# [1] = system: melanocytes in human hair follicles; assay: Immunohistochemical analysis of melanocytes in cultured hair follicles (NKI-beteb, Ki67, Trp2, cKit)
# Text: Number of melanocytes in the hair follicle can be evaluated by standard methods e.g.: immunohistochemical staining of the melanocytes with the pan-melanocyte marker NKI-beteb following by counting the NKI-beteb+ cells.
# Differentiation and migration of melanocytes from the hair sheath to the hair matrix can be measured by immunohistochemical staining of c-kit+ melanocytes in the hair follicle, and by assessing their distribution within the hair follicle.
# (§1) Tissue containing human hair follicles in the growth stage (anagen) of the hair cycle were obtained from elective facial surgery interventions. Hair follicles were isolated and maintained in culture according to methods well established in the art (Philpott et al. 1990, J Cell Sci. 97: 463-471). Gambogic amide (GA) was administered to pigmented cultured anagen VI hair follicle every other day over a culture period of 7 days in various concentrations comprised between 10 nano molar and 1 micro molar and compared to a control group without addition of GA.
# Immunohistochemical analysis of hair follicle was performed according to standard methods. Immunohistochemical staining of the pan-melanocyte marker NKI-beteb and the proliferation marker Ki67 was used to asses total number of melanocytes in cultured follicles in presence of GA. […] This increase was dose dependent. […]
# human hair follicles [2] = assay: Macroscopic analysis of hair follicle pigmentation in cultured anagen hair follicles; conditions: 0.1 to 1 micro molar GA, 7 day culture, versus control group
# Description: as §1
# human hair follicles [3] = assay: Hair shaft elongation, hair cycle progression and toxicity in cultured human anagen VI hair follicles
# Description: as §1
# Hair shaft elongation was measured as a way to assess possible hair growth promoting or inhibiting effects of GA. […] It is therefore concluded from this first observation that the dose range in which GA can be used is between 10 nano molar and 1 micro molar, and that GA can be used as a hair growth promoting or restoring agent.
compound,measurement,setting,value
"CC(C)=CCC[C@]1(C)C=Cc2c(O)c3c(c(CC=C(C)C)c2O1)O[C@]12C(=C[C@@H]4C[C@H]1C(C)(C)O[C@@]2(C/C=C(/C)C(N)=O)C4=O)C3=O [GA, 2-Butenamide, 2-methyl-4-[(1R,3aS,5S,11R,14aS)-3a,4,5,7-tetrahydro-8-hydroxy-3,3,11-trimethyl-13-(3-methyl-2-buten-1-yl)-11-(4-methyl-3-penten-1-yl)-7,15-dioxo-1,5-methano-1H,3H,11H-furo[3,4-g]pyrano[3,2-b]xanthen-1-yl]-, (2Z)-]",total number of melanocytes (NKI-beteb and Ki67 staining),"[1]; between 0.1 and 0.5 micro molar, hair follicles that remained in the anagen stage",total number of melanocytes was increased
same,"cKit labeling (marker for migrating, activated early melanocytes)",[1]; hair follicles treated between 0.1 and 1 micro molar GA,most pronouncedly found
same,hair follicle pigmentation (macroscopic analysis),human hair follicles [2],clear and significant improvement of hair follicle pigmentation
same,signs of toxicity,human hair follicles [3]; concentrations as high as 1 micro,No signs of toxicity were observed
same,hair shaft elongation compared to control,"human hair follicles [3]; concentrations between 0.1 and 1 micro molar, 7 days culture",increase in hair shaft elongation
same,hair cycle progression,"human hair follicles [3]; with the application of GA, 7 days culture",no hair cycle progression was observed
